Measured values: patent US6048874A, “Parenteral metolazone formulations” (priority 1999, dated 2000)
Values after ≈ are worked out from the molar mass of the structure shown. Values joined by “and” are separate entries in the source; they are usually repeats but may differ in a detail not shown here. Equal values may be shown once.

Experiments:
[1] = Apparent equilibrium solubility, spectrophotometric assay at 346 nm; assay type: physicochemical; conditions: aqueous propylene glycol/ethanol, organic solvent or mixture
Procedure: The apparent equilibrium solubility of metolazone in an aqueous solvent of 65% w/v propylene glycol/15% w/v ethyl alcohol (95% v/v in water) was determined as described below.
A 250 mg quantity of metolazone was equilibrated with 20 ml of a solvent consisting of 65% w/v propylene glycol, 15% w/v ethyl alcohol (95% v/v in water), and water for 24 hours at room temperature on a wrist action shaker. […] After equilibration, the solution was filtered through a 0.45 μm filter, diluted, and assayed spectrophotometrically at 346 nm.

[2] = Apparent equilibrium solubility redetermined, HPLC analysis; assay type: physicochemical; conditions: 65% w/v propylene glycol/15% w/v ethyl alcohol/water
Procedure: (§1) The apparent equilibrium solubility was redetermined more accurately as follows. A 300 g quantity of ethyl alcohol (95% v/v in water) and 1300 g of propylene glycol were added to a 2000 ml volumetric flask and mixed well. Next, purified water was added q.s. to 2000 ml. This is the solvent.
(§2) Nine 30 ml amber bottles were filled with 25 ml of the solvent and 400 mg of metolazone and mixed on a wrist arm shaker for 24 hours (3 bottles), 48 hours (3 bottles), and 72 hours (3 bottles). The samples were filtered through a membrane filter (Whatman 25 mm 601X Nylon Filter (0.45 μm)). The concentration of the samples was determined by HPLC and by UV analysis.
The sample concentrations were analyzed by an HPLC system (HP 1100, available from Hewlett-Packard, Palo Alto, Calif.) equipped with a C18 column and an UV detector set at 230 nm. The mobile phase consisted of water and methanol at a ratio of 62/38 (v/v) and was used at a flow rate of 1.5 ml/minute.

[3] = Apparent equilibrium solubility redetermined, UV analysis; assay type: physicochemical; conditions: 65% w/v propylene glycol/15% w/v ethyl alcohol/water, UV 235 nm
Procedure: as §1, §2
The sample concentrations were measured by the UV absorbance at 235 nm using an UV/VIS spectrophotometer (HP 8453, available from Hewlett-Packard, Palo Alto, Calif.).

[4] = cited from earlier work
[5] = cited from earlier work; remark: listed apart in the source
[6] = diuretic; cited from earlier work
[7] = cited from earlier work; remark: listed apart in the source

## Cc1ccccc1N1C(=O)c2cc(S(N)(=O)=O)c(Cl)cc2NC1C (stereo not shown) [Metolazone, 7-chloro-1,2,3,4-tetrahydro-2-methyl-3-(2-methylphenyl)-4-oxo-6-quinazolinesulfonamide]
[1]; 65% w/v propylene glycol, 15% w/v ethyl alcohol (95% v/v in water), water, 24 hours, room temperature, spectrophotometric 346 nm
  solubility thermodynamic at 24 h: 8360 µg/mL (≈ 22.9 mM)
[1]; aqueous 65% w/v propylene glycol, 15% w/v ethyl alcohol, read-out: apparent equilibrium solubility limit
  solubility thermodynamic: ~8000 µg/mL (≈ 21.9 mM)
[2]; aqueous propylene glycol/ethanol, organic solvent or mixture, shaken 24 hrs, read-out: Concentration of Metolazone, HPLC (apparent equilibrium solubility)
  solubility thermodynamic at 24 h: 7900 µg/mL (≈ 21.6 mM)
[2]; aqueous propylene glycol/ethanol, organic solvent or mixture, shaken 48 hrs, read-out: Concentration of Metolazone, HPLC (apparent equilibrium solubility)
  solubility thermodynamic at 48 h: 7810 µg/mL (≈ 21.3 mM)
[2]; aqueous propylene glycol/ethanol, organic solvent or mixture, shaken 72 hrs, read-out: Concentration of Metolazone, HPLC (apparent equilibrium solubility)
  solubility thermodynamic at 72 h: 7610 µg/mL (≈ 20.8 mM)
[2]; shaken 24 hrs, 1440 min
  Concentration of Metolazone, HPLC (apparent equilibrium solubility): 7730 µg/mL and 7650 µg/mL
[2]; shaken 48 hrs, 2880 min
  Concentration of Metolazone, HPLC (apparent equilibrium solubility): 7680 µg/mL and 7660 µg/mL
[2]; shaken 72 hrs, 4320 min
  Concentration of Metolazone, HPLC (apparent equilibrium solubility): 7680 µg/mL and 7910 µg/mL
[3]; aqueous propylene glycol/ethanol, organic solvent or mixture, shaken 24 hrs, read-out: Concentration of Metolazone, UV (apparent equilibrium solubility)
  solubility thermodynamic at 24 h: 8090 µg/mL (≈ 22.1 mM)
[3]; aqueous propylene glycol/ethanol, organic solvent or mixture, shaken 48 hrs, read-out: Concentration of Metolazone, UV (apparent equilibrium solubility)
  solubility thermodynamic at 48 h: 7580 µg/mL (≈ 20.7 mM)
[3]; aqueous propylene glycol/ethanol, organic solvent or mixture, shaken 72 hrs, read-out: Concentration of Metolazone, UV (apparent equilibrium solubility)
  solubility thermodynamic at 72 h: 7300 µg/mL (≈ 20 mM)
[3]; shaken 24 hrs, 1440 min
  Concentration of Metolazone, UV (apparent equilibrium solubility): 7540 µg/mL and 7410 µg/mL
[3]; shaken 48 hrs, 2880 min
  Concentration of Metolazone, UV (apparent equilibrium solubility): 7560 µg/mL and 7430 µg/mL
[3]; shaken 72 hrs, 4320 min
  Concentration of Metolazone, UV (apparent equilibrium solubility): 7310 µg/mL and 7550 µg/mL
[4]
  solubility in water: about 0.02 mg/ml
[5]; aqueous solution, alkali hydroxides
  pH of aqueous solution sufficient to solubilize metolazone: about 11
[5]; pH of about 11
  chemical stability at high pH: chemically unstable
[6]
  potency, on a weight basis, vs quinethazone or hydrochlorothiazide: greater potency
[7]
  decomposition when exposed to light: decompose when exposed to light
